Test results published in PubChem BioAssay (NCI).
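Five concentrations, 48 hours, 96-well plates. At the GI50, growth is halved. TGI: concentration producing complete growth inhibition.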

Columns and labels:
Test in all cases: DTP human tumour cell line panel, 48 h
SF-268 CNS = system: SF-268 CNS
UACC-257 melanoma = system: UACC-257 melanoma
HL-60(TB) leukemia = system: HL-60(TB) leukemia
LOX IMVI melanoma = system: LOX IMVI melanoma
TK-10 renal = system: TK-10 renal
OVCAR-4 ovarian = system: OVCAR-4 ovarian
MALME-3M melanoma = system: MALME-3M melanoma
OVCAR-3 ovarian = system: OVCAR-3 ovarian
SN12C renal = system: SN12C renal
MDA-MB-435 = system: MDA-MB-435

| Compound | TGI (SF-268 CNS) [µM] | TGI (UACC-257 melanoma) [µM] | TGI (HL-60(TB) leukemia) [µM] | TGI (LOX IMVI melanoma) [µM] | TGI (TK-10 renal) [µM] | TGI (OVCAR-4 ovarian) [µM] | TGI (MALME-3M melanoma) [µM] | TGI (OVCAR-3 ovarian) [µM] | TGI (SN12C renal) [µM] | TGI (MDA-MB-435) [µM] | GI50 (SF-268 CNS) [µM] | GI50 (UACC-257 melanoma) [µM] | GI50 (LOX IMVI melanoma) [µM] | GI50 (TK-10 renal) [µM] | GI50 (OVCAR-4 ovarian) [µM] | GI50 (MALME-3M melanoma) [µM] | GI50 (OVCAR-3 ovarian) [µM] | GI50 (SN12C renal) [µM] | GI50 (MDA-MB-435) [µM] | GI50 (HL-60(TB) leukemia) [µM] |
| --- | --- | --- | --- | --- | --- | --- | --- | --- | --- | --- | --- | --- | --- | --- | --- | --- | --- | --- | --- | --- |
| CC(NS(=O)(=O)c1ccc([N+](=O)[O-])cc1)C(=O)O (stereo unspecified) | > 100 | > 100 | > 100 | > 100 | > 100 | > 100 | > 100 | > 100 | > 100 |  |  |  |  |  |  |  |  |  |  |  |
| O=C1[C@@H]2C(c3ccccc3Br)=NO[C@@H]2C(=O)N1c1ccc(Cc2ccc(N3C(=O)[C@H]4C(c5ccccc5Br)=NO[C@H]4C3=O)cc2)cc1 | > 100 | > 100 | > 100 | > 100 | > 100 | > 100 | > 100 | > 100 | > 100 |  |  |  |  |  |  |  |  |  |  |  |
| Cc1c(N2CCCC2)cc2c(c1NC(=O)c1ccccc1Cl)C(C)(C)CC2(C)C | 30.6 | 24.1 |  | 27.4 | 23.1 | 33.3 | 36.1 | 21.3 | 33.2 | 27.9 |  |  |  |  |  |  |  |  |  |  |
| CC1CC[C@]2(C(=O)O)CCC3(COC(=O)/C=C\c4ccc(O)cc4)C(=CCC4[C@@]5(C)CC[C@H](O)C(C)(C)C5CC[C@]43C)[C@@H]2[C@H]1C (stereo partly specified) | 30.8 | 69.6 | 72.8 | 28.2 | 44.7 | > 100 | 87.9 | 37.1 | 54.2 |  |  |  |  |  |  |  |  |  |  |  |
| CCOC(=O)c1c2c(c(O)c3ccccc3c(O)n(Cc3ccc(OC)cc3)c1C)C(=O)C=CC2=O | > 100 | > 100 |  | > 100 | > 100 | > 100 | > 100 | > 100 | > 100 | > 100 | > 100 | > 100 | > 100 | > 100 | > 100 | > 100 | 68.9 | > 100 | > 100 |  |
| CC1CC(C2=CC=CCS2)=Nc2ccccc2S1 (stereo unspecified) | > 100 | > 100 | > 100 | > 100 | > 100 | > 100 | > 100 | > 100 | > 100 |  |  |  |  |  |  |  |  |  |  |  |
| Cc1ccc(NC(=O)c2cc3cc(N=Nc4ccc(Br)cc4)ccc3oc2=O)cc1 | > 100 | > 100 | > 100 | > 100 | > 100 | > 100 | > 100 |  | > 100 |  |  |  |  |  |  |  |  |  |  |  |
| COc1ccc(OC)c(/C=N/NC(=O)Cc2csc3nc(-c4ccc(Br)cc4)cn23)c1 | > 100 | 97.5 |  | 47.4 | 51.2 | > 100 |  | 59 | 49.4 | 16.2 | > 100 | 23.9 | 12.6 | 16.3 | 28.4 |  | 15.9 | 20.7 | 3.96 |  |
| N=C(N)c1ccc(OCc2cccc(COc3ccc(C(=N)N)cc3)c2)cc1 | 18.5 | 84.8 |  |  | 21 | 99.6 | 6.01 |  | 13.1 | 11.8 | 5.53 | 14.4 |  | 7.61 | 14.1 | 1.77 |  | 2.68 | 4.01 |  |
| CN1N=CSC12C(=O)N(c1ccc(Cl)cc1)C(=O)N2c1ccc(Cl)cc1 (stereo unspecified) | > 100 | 33.5 | 5.09 | 8.91 | 81.1 | > 100 | > 100 | 4.54 | > 100 |  |  |  |  |  |  |  |  |  |  |  |
| COc1cccc2c1C(=O)C=CC2=O | 19.8 | 29 | 1.09 |  | 28.4 | 3.77 | 30.6 | 3.51 | 27.4 | 26.2 |  |  |  |  |  |  |  |  |  |  |
| Cc1nc(-c2cccc(Nc3nc(-c4ccc(Cl)cc4)cs3)c2)cs1 | 24.2 | 18.1 | > 50 | 13.9 | 17.8 |  |  | 23.1 | 17.1 | 27.4 | 10.4 | 8.76 | 7.3 | 8.31 |  |  | 10.5 | 9.3 | 10.4 | 19.8 |
| COC(=O)C1=C(c2ccc(OC)c(OC)c2)OC(c2ccc(OC)c(OC)c2)C1 (stereo unspecified) | > 100 | > 100 | 44.6 | > 100 | > 100 | > 100 | 69.3 | > 100 | > 100 |  |  |  |  |  |  |  |  |  |  |  |
| C/C(CN1C(=O)c2ccccc2C1=O)=N\NS(=O)(=O)c1ccc(C)cc1 |  | > 100 | > 100 |  | > 100 | > 100 | > 100 | > 100 | > 100 |  |  |  |  |  |  |  |  |  |  |  |
| COc1ccc(-c2cc(-c3cc(Cl)ccc3Cl)nc3n[nH]c(N)c23)cc1 | 24.5 | > 100 |  | > 100 | > 100 | > 100 | > 100 | 61.9 | > 100 | 6.94 | 4.32 | 70.4 | 20.1 | 41.2 | 15.6 | 46.8 | 8.82 | 32.7 | 2.65 |  |
| CCN(CC)CCOCC[C@H]1CC[C@H]2[C@@H]3[C@H](C)Cc4cc(OS(N)(=O)=O)ccc4[C@H]3CC[C@]12C | 2.66 | 3.34 | 3.87 | 2.77 | 3.34 | 2.29 |  | 2.46 | 2.86 |  | 1.31 | 1.74 | 1.33 | 1.3 | 0.806 |  | 1.21 | 1.19 |  | 1.64 |
| FC(F)(F)c1nc(N2CCCC2)ncc1-c1nnnn1-c1ccc(Cl)cc1 | > 100 | 69.5 |  | 49.5 | 75.6 | 74.8 | 42.6 | 83.4 | > 100 | 40.8 | 23.7 | 7.11 | 15.4 | 15.4 | 6.7 | 16.9 | 18.9 | 26.3 | 15.2 |  |
| NC1=NC(=O)/C(=C/c2ccccc2[N+](=O)[O-])C(N)=N1 |  | > 100 | > 100 | > 100 | > 100 | > 100 | > 100 | > 100 | > 100 |  |  |  |  |  |  |  |  |  |  |  |
